Assay: xn = mol fraction of the nth substance listed
Details: Liquid, Vibrating wire viscometry

Cc1ccc(C)c(C)c1 [1,2,4-trimethylbenzene] + CCC(C)O
viscosity [mPa·s]
Details | 293.15 K | 313.15 K | 333.15 K | 353.15 K
100 kPa, x2 = 0.3011 | 0.9506 | 0.708 | 0.539 | 0.43
100 kPa, x2 = 0.5001 | 1.108 | 0.7802 | 0.5777 | 0.4439
100 kPa, x2 = 0.7999 | 1.834 | 1.097 | 0.7185 | 0.4963
1000 kPa, x2 = 0.3011 | 0.9531 | 0.7098 | 0.5411 | 0.436
1000 kPa, x2 = 0.5001 | 1.117 | 0.7964 | 0.5881 | 0.4481
1000 kPa, x2 = 0.7999 | 1.863 | 1.131 | 0.7301 | 0.5
5000 kPa, x2 = 0.3011 | 0.9988 | 0.7427 | 0.571 | 0.4507
5000 kPa, x2 = 0.5001 | 1.173 | 0.8335 | 0.6122 | 0.467
5000 kPa, x2 = 0.7999 | 1.964 | 1.187 | 0.7583 | 0.5157
10000 kPa, x2 = 0.3011 | 1.051 | 0.7727 | 0.5928 | 0.4678
10000 kPa, x2 = 0.5001 | 1.235 | 0.8676 | 0.6383 | 0.4891
10000 kPa, x2 = 0.7999 | 2.099 | 1.244 | 0.7963 | 0.5386
20000 kPa, x2 = 0.3011 | 1.137 | 0.8356 | 0.634 | 0.4988
20000 kPa, x2 = 0.5001 | 1.329 | 0.9318 | 0.6899 | 0.5215
20000 kPa, x2 = 0.7999 | 2.326 | 1.363 | 0.8656 | 0.584
30000 kPa, x2 = 0.3011 | 1.238 | 0.9034 | 0.6817 | 0.5358
30000 kPa, x2 = 0.5001 | 1.462 | 1.031 | 0.739 | 0.5615
30000 kPa, x2 = 0.7999 | 2.611 | 1.515 | 0.9569 | 0.6316
40000 kPa, x2 = 0.3011 | 1.334 | 0.9814 | 0.7313 | 0.57
40000 kPa, x2 = 0.5001 | 1.591 | 1.108 | 0.7961 | 0.5952
40000 kPa, x2 = 0.7999 | 2.897 | 1.666 | 1.039 | 0.6809
50000 kPa, x2 = 0.3011 | 1.452 | 1.055 | 0.784 | 0.605
50000 kPa, x2 = 0.5001 | 1.739 | 1.204 | 0.8558 | 0.6372
50000 kPa, x2 = 0.7999 | 3.229 | 1.835 | 1.13 | 0.7349
60000 kPa, x2 = 0.3011 | 1.57 | 1.132 | 0.8388 | 0.645
60000 kPa, x2 = 0.5001 | 1.906 | 1.3 | 0.9176 | 0.6813
60000 kPa, x2 = 0.7999 | 3.561 | 2.005 | 1.219 | 0.7906
70000 kPa, x2 = 0.3011 | 1.702 | 1.224 | 0.8962 | 0.6863
70000 kPa, x2 = 0.5001 | 2.061 | 1.394 | 0.9822 | 0.726
70000 kPa, x2 = 0.7999 | 3.917 | 2.187 | 1.321 | 0.849
80000 kPa, x2 = 0.3011 | 1.851 | 1.303 | 0.9559 | 0.7294
80000 kPa, x2 = 0.5001 | 2.257 | 1.502 | 1.046 | 0.7743
80000 kPa, x2 = 0.7999 | 4.274 | 2.368 | 1.424 | 0.9092
100000 kPa, x2 = 0.3011 | 2.152 | 1.491 | 1.089 | 0.821
100000 kPa, x2 = 0.5001 | 2.62 | 1.716 | 1.196 | 0.871
100000 kPa, x2 = 0.7999 | 5.09 | 2.741 | 1.653 | 1.04
120000 kPa, x2 = 0.3011 | 2.47 | 1.667 | 1.238 | 0.9204
120000 kPa, x2 = 0.5001 | 3.033 | 1.936 | 1.366 | 0.9782
120000 kPa, x2 = 0.7999 | 6.117 | 3.219 | 1.898 | 1.175
140000 kPa, x2 = 0.3011 | 2.838 | 1.904 | 1.385 | 1.038
140000 kPa, x2 = 0.5001 | 3.493 | 2.192 | 1.528 | 1.093
140000 kPa, x2 = 0.7999 | 7.143 | 3.693 | 2.144 | 1.339

CCC(C)O (stereo unspecified) [butan-2-ol] + CC(C)CC(C)(C)C
viscosity [mPa·s]
Details | 293.15 K | 298.15 K | 313.15 K | 333.15 K | 353.15 K
100 kPa, x1 = 0.2999 | 0.6047 | – | 0.4647 | 0.3574 | 0.2785
100 kPa, x1 = 0.5001 | 0.7922 | – | 0.5643 | 0.4132 | 0.3272
100 kPa, x1 = 0.7996 | 1.673 | – | 0.9784 | 0.6203 | 0.4165
100 kPa, x1 = 1 | 3.767 | 3.102 | 1.839 | 1.007 | 0.6198
1000 kPa, x1 = 0.2999 | 0.609 | – | 0.4677 | 0.3614 | 0.2825
1000 kPa, x1 = 0.5001 | 0.797 | – | 0.5722 | 0.4166 | 0.333
1000 kPa, x1 = 0.7996 | 1.707 | – | 0.9858 | 0.631 | 0.4213
1000 kPa, x1 = 1 | 3.813 | 3.123 | 1.862 | 1.023 | 0.6273
5000 kPa, x1 = 0.2999 | 0.6391 | – | 0.4936 | 0.3814 | 0.2981
5000 kPa, x1 = 0.5001 | 0.8463 | – | 0.6074 | 0.4455 | 0.349
5000 kPa, x1 = 0.7996 | 1.793 | – | 1.043 | 0.6669 | 0.4405
5000 kPa, x1 = 1 | 3.978 | 3.28 | 1.947 | 1.078 | 0.6577
10000 kPa, x1 = 0.2999 | 0.6863 | – | 0.5264 | 0.4083 | 0.3222
10000 kPa, x1 = 0.5001 | 0.8968 | – | 0.6501 | 0.4682 | 0.373
10000 kPa, x1 = 0.7996 | 1.913 | – | 1.11 | 0.7064 | 0.4671
10000 kPa, x1 = 1 | 4.235 | 3.462 | 2.041 | 1.133 | 0.6999
20000 kPa, x1 = 0.2999 | 0.7692 | – | 0.5924 | 0.4584 | 0.3642
20000 kPa, x1 = 0.5001 | 1 | – | 0.7349 | 0.5293 | 0.4151
20000 kPa, x1 = 0.7996 | 2.14 | – | 1.253 | 0.7854 | 0.5216
20000 kPa, x1 = 1 | 4.696 | 3.873 | 2.262 | 1.254 | 0.7717
30000 kPa, x1 = 0.2999 | 0.8642 | – | 0.6612 | 0.5124 | 0.4069
30000 kPa, x1 = 0.5001 | 1.131 | – | 0.8188 | 0.6041 | 0.4619
30000 kPa, x1 = 0.7996 | 2.395 | – | 1.4 | 0.8701 | 0.5729
30000 kPa, x1 = 1 | 5.159 | 4.253 | 2.503 | 1.372 | 0.8354
40000 kPa, x1 = 0.2999 | 0.9608 | – | 0.7328 | 0.5669 | 0.4472
40000 kPa, x1 = 0.5001 | 1.247 | – | 0.9032 | 0.6689 | 0.5088
40000 kPa, x1 = 0.7996 | 2.683 | – | 1.559 | 0.9706 | 0.6309
40000 kPa, x1 = 1 | 5.693 | 4.697 | 2.734 | 1.491 | 0.9088
50000 kPa, x1 = 0.2999 | 1.065 | – | 0.8134 | 0.6217 | 0.4904
50000 kPa, x1 = 0.5001 | 1.385 | – | 0.987 | 0.7304 | 0.5576
50000 kPa, x1 = 0.7996 | 2.993 | – | 1.707 | 1.07 | 0.6907
50000 kPa, x1 = 1 | 6.274 | 5.142 | 2.99 | 1.624 | 0.9898
60000 kPa, x1 = 0.2999 | 1.173 | – | 0.8859 | 0.6795 | 0.54
60000 kPa, x1 = 0.5001 | 1.541 | – | 1.082 | 0.7967 | 0.6147
60000 kPa, x1 = 0.7996 | 3.276 | – | 1.869 | 1.172 | 0.7546
60000 kPa, x1 = 1 | 6.831 | 5.553 | 3.237 | 1.759 | 1.07
70000 kPa, x1 = 0.2999 | 1.282 | – | 0.9597 | 0.7435 | 0.5886
70000 kPa, x1 = 0.5001 | 1.7 | – | 1.179 | 0.8604 | 0.6678
70000 kPa, x1 = 0.7996 | 3.645 | – | 2.049 | 1.271 | 0.8214
70000 kPa, x1 = 1 | 7.377 | 6.044 | 3.558 | 1.905 | 1.151
80000 kPa, x1 = 0.2999 | 1.395 | – | 1.04 | 0.8018 | 0.6326
80000 kPa, x1 = 0.5001 | 1.853 | – | 1.272 | 0.9339 | 0.7221
80000 kPa, x1 = 0.7996 | 3.939 | – | 2.23 | 1.387 | 0.8973
80000 kPa, x1 = 1 | 8.056 | 6.544 | 3.841 | 2.081 | 1.242
100000 kPa, x1 = 0.2999 | 1.66 | – | 1.223 | 0.9315 | 0.7318
100000 kPa, x1 = 0.5001 | 2.169 | – | 1.509 | 1.089 | 0.8402
100000 kPa, x1 = 0.7996 | 4.702 | – | 2.621 | 1.613 | 1.046
100000 kPa, x1 = 1 | 9.598 | 7.646 | 4.456 | 2.427 | 1.444
120000 kPa, x1 = 0.2999 | 1.925 | – | 1.414 | 1.057 | 0.8276
120000 kPa, x1 = 0.5001 | 2.516 | – | 1.74 | 1.236 | 0.9461
120000 kPa, x1 = 0.7996 | 5.445 | – | 3.051 | 1.831 | 1.206
120000 kPa, x1 = 1 | 11.31 | 9.053 | 5.179 | 2.716 | 1.644
140000 kPa, x1 = 0.2999 | 2.24 | – | 1.598 | 1.196 | 0.9377
140000 kPa, x1 = 0.5001 | 2.913 | – | 1.973 | 1.408 | 1.069
140000 kPa, x1 = 0.7996 | 6.323 | – | 3.552 | 2.083 | 1.367
140000 kPa, x1 = 1 | 13.38 | 10.43 | 5.933 | 3.099 | 1.845
